Results published in patent publication US7468369B2, “Sulfonyl pyrrolidines, method for producing the same and their use as drugs” (Sanofi-Aventis, priority 2005, dated 2008).
Where a name gives a salt, the structure may show the parent alone.

Test system: human ABCA1 promoter
Assay: ABCA1 promoter test (luciferase reporter in stably transfected THP1 cell line)
Assay type: cell-based
Conditions: Homo sapiens, THP-1; ABCA1 reporter cell line (THP1, PMA-differentiated), 24 h incubation, luciferase chemiluminescence; read-out: E50 ABCA1
Description: The potency of substances which activate expression of the human ABCA1 gene via its promoter is analyzed by using a stably transfected THP1 cell line (human monocyte cell line) which is referred to herein as ABCA1 reporter cell line. It contains a fragment, 3.2 kb in size and stably integrated into the genome, of the human ABCA1 promoter in front of a luciferase reporter element. Expression of the luciferase reporter gene is only low without addition of an ABCA1 expression activator. The substances stimulating ABCA1 expression bring about, via activation of the ABCA1 promoter, an enhanced expression of the luciferase reporter gene. The luciferase which is formed can be detected via an appropriate substrate by means of chemiluminescence.
Construction of the Cell Line
The ABCA1 reporter line was prepared as follows: firstly the neomycin resistance gene (Acc. No.: AJ000156) was introduced into the luciferase reporter plasmid pLG3basic (#1751, Promega) 3′ below the luciferase reporter element. Subsequently, an ABCA1 promoter fragment, 3.2 kb in size and amplified from human genomic DNA (#6550-1, Clontech) by the polymerase chain reaction, was cloned in 5′ above the luciferase reporter element. The reporter plasmid produced in this way was called pGL3BN-ABCA1P. Luciferase expression in this plasmid is controlled by the ABCA1 promoter. Cloning and sequencing of the construct took place in analogy to the description in Sambrook J et al. (Molecular cloning, Cold Spring Harbor Laboratory Press, 1989). For stable transfection into THP1 cells, firstly pGL3BN-ABCA1P was linearized with a restriction endonuclease and then introduced into the THP1 cells as stated in Ausubel, F. M. et al. (Current protocols in molecular biology, Vol. 1-3, John Wiley & Sons, Inc., 1995).
The activity of ABCA1 expression activators is determined in a 3-day test which is described below:
The ABCA1 reporter cell line comprises suspension cells. These are cultured until the concentration is 0.5×10^6 cells/ml in RPMI medium (#52400-025, Invitrogen) which is mixed with the following additions: 10% FCS (fetal calf serum; #16000-044, invitrogen), 0.5 mg/ml Geneticin (#10131-019, invitrogen) and 1% penicillin-streptomycin solution (#15140-122, invitrogen). The culturing takes place in standard cell culture flasks (#353112, Becton Dickinson) in a cell culture incubator at 37° C. in the presence of 5% CO2.
For the ABCA1 promoter test, the suspension cells are centrifuged at 1200 rpm in 50 ml tubes. The supernatant is aspirated off, and the pellet is resuspended in 15 ml of RPMI medium and counted in a cell counter. After dilution to 175 000 cells/ml, 0.1 μg/ml PMA (phorbol 12-myristate 13-acetate, #8139-5MG, Sigma) is added in order to induce differentiation of the monocytic THP1 suspension cells into adherent macrophages. 35 000 cells in each well are seeded in a 96-well microtiter plate with clear plastic base (#3610, Corning Costar). The plates are incubated in a cell culture incubator at 37° C. and 5% CO2 for 24 h.
The ABCA1 expression activators to be tested are dissolved in a concentration of 10 mM in DMSO. This stock solution is diluted in the RPMI medium (mixed with 0.1 μg/ml PMA) described above. Test substances are tested in 11 different concentrations in the range from […] to 330 pM. The medium of the ABCA1 reporter cell line seeded on day 1 is completely removed by aspiration and the diluted test substances are immediately added to the cells. The dilution and addition of the substances takes place with a pipetting robot (Beckman FX). The final volume of the test substances diluted in medium is 100 μl per well of a 96-well microtiter plate. The DMSO concentration in the test is less than 0.1% v/v in order to avoid cytotoxic effects of the solvent.
The test plates are incubated in an incubator at 37° C. and 5% CO2 for 24 h.
The ABCA1 reporter cells treated with the test substances are removed from the incubator and the medium is aspirated off. […]

With `Cc1ccc([C@@H]2CN(S(=O)(=O)c3c(C)noc3C)C[C@H]2C(=O)N2CCN(c3cc(C)ccc3C)CC2)cc1` [Example 1, [1-(3,5-Dimethylisoxazole-4-sulfonyl)-3,4-trans-4-p-tolylpyrrolidin-3-yl]-[4-(2,5-dimethylphenyl)piperazin-1-yl]methanone trifluoroacetate] as the compound, how does the EC50 read?
Its EC50 is 2.84 µM.

With `O=C([C@@H]1CN(S(=O)(=O)c2cc(Cl)c(Cl)s2)C[C@H]1c1ccccc1)N1CCN(c2ccccc2)CC1` [Example 21, [1-(4,5-Dichlorothiophene-2-sulfonyl)-3,4-trans-4-phenylpyrrolidin-3-yl]-(4-phenylpiperazin-1-yl)methanone] as the compound, how does the EC50 read?
Its EC50 is 4.62 µM.

Which EC50 does the source give for `O=C([C@@H]1CN(S(=O)(=O)c2cccs2)C[C@H]1c1ccccc1)N1CCN(c2cc(Cl)ccc2Cl)CC1` [Example 66, [4-(2,5-Dichlorophenyl)piperazin-1-yl]-[3,4-trans-4-phenyl-1-(thiophene-2-sulfonyl)pyrrolidin-3-yl]methanone trifluoroacetate] here?
The EC50 was 0.432 µM.

Which EC50 does the source give for `Cc1ccc(C)c(N2CCN(C(=O)[C@@H]3CN(S(=O)(=O)c4cccc5nonc45)C[C@H]3c3ccccc3)CC2)c1` [Example 68, [1-(Benzene[1,2,5-oxadiazol-4-sulfonyl)-3,4-trans-4-phenylpyrrolidin-3-yl]-[4-(2,5-dimethylphenyl)piperazin-1-yl]methanone trifluoroacetate] here?
Its EC50 is 0.869 µM.

Which EC50 does the source give for `Cc1ccc(C)c(N2CCN(C(=O)[C@@H]3CN(S(=O)(=O)C(C)C)C[C@H]3c3ccccc3)CC2)c1` [Example 70, [4-(2,5-Dimethylphenyl)piperazin-1-yl]-[3,4-trans-4-phenyl-1-(propan-2-sulfonyl)pyrrolidin-3-yl]methanone trifluoroacetate] here?
The EC50 was 0.915 µM.

`Cc1ccc(C)c(N2CCN(C(=O)[C@@H]3CN(S(=O)(=O)c4cccnc4)C[C@H]3c3ccccc3)CC2)c1` [Example 72, [4-(2,5-Dimethylphenyl)piperazin-1-yl]-[3,4-trans-4-phenyl-1-(pyridine-3-sulfonyl)pyrrolidin-3-yl]methanone trifluoroacetate] was tested. Which EC50 did it give?
Its EC50 is 0.241 µM.

How did the EC50 turn out when `O=C([C@@H]1CN(S(=O)(=O)c2cccnc2)C[C@H]1c1ccccc1)N1CCN(c2cc(Cl)ccc2Cl)CC1` [Example 73, [4-(2,5-Dichlorophenyl)piperazin-1-yl]-[3,4-trans-4-phenyl-1-(pyridine-3-sulfonyl)pyrrolidin-3-yl]methanone trifluoroacetate] was run?
Its EC50 is 0.407 µM.

How did the EC50 turn out when `Cc1cccc(S(=O)(=O)N2C[C@@H](C(=O)N3CCN(c4cc(Cl)ccc4Cl)CC3)[C@H](c3ccccc3)C2)c1` [Example 74, [4-(2,5-Dichlorophenyl)piperazin-1-yl]-[3,4-trans-4-phenyl-1-(toluene-3-sulfonyl)pyrrolidin-3-yl]methanone trifluoroacetate] was run?
Its EC50 is 0.34 µM.

With `COc1ccc(S(=O)(=O)N2C[C@@H](C(=O)N3CCN(c4cc(Cl)ccc4Cl)CC3)[C@H](c3ccccc3)C2)cc1` [Example 75, [4-(2,5-Dichlorophenyl)piperazin-1-yl]-[1-(4-methoxybenzenesulfonyl)-3,4-trans-4-phenylpyrrolidin-3-yl]methanone trifluoroacetate] as the compound, how does the EC50 read?
Its EC50 is 0.98 µM.

Which EC50 does the source give for `COc1ccc(OC)c(N2CCN(C(=O)[C@@H]3CN(S(=O)(=O)CC(F)(F)F)C[C@H]3c3ccccc3)CC2)c1` [Example 76, [4-(2,5-Dimethoxyphenyl)piperazin-1-yl]-[3,4-trans-4-phenyl-1-(2,2,2-trifluoroethanesulfonyl)pyrrolidin-3-yl]methanone trifluoroacetate] here?
Its EC50 is 3.12 µM.

`COc1ccc(S(=O)(=O)N2C[C@@H](C(=O)N3CCN(c4cc(OC)ccc4OC)CC3)[C@H](c3ccccc3)C2)cc1` [Example 79, [4-(2,5-Dimethoxyphenyl)piperazin-1-yl]-[1-(4-methoxybenzenesulfonyl)-3,4-trans-4-phenylpyrrolidin-3-yl]methanone trifluoroacetate] was tested. Which EC50 did it give?
Its EC50 is 1.58 µM.

For `COc1ccc(OC)c(N2CCN(C(=O)[C@@H]3CN(S(=O)(=O)c4cccc(C)c4)C[C@H]3c3ccccc3)CC2)c1` [Example 80, [4-2,5-Dimethoxyphenyl)piperazin-1-yl]-[3,4-trans-4-phenyl-1-(toluene-3-sulfonyl)pyrrolidin-3-yl]methanone trifluoroacetate], which EC50 is on record?
Its EC50 is 3.15 µM.

How did the EC50 turn out when `COc1ccc(OC)c(N2CCN(C(=O)[C@@H]3CN(S(=O)(=O)c4c(C)noc4C)C[C@H]3c3ccccc3)CC2)c1` [Example 81] was run?
Its EC50 is 1.82 µM.

Which EC50 does the source give for `COc1cccc(S(=O)(=O)N2C[C@@H](C(=O)N3CCN(c4cc(OC)ccc4OC)CC3)[C@H](c3ccccc3)C2)c1` [Example 82, [4-(2,5-Dimethoxyphenyl)piperazin-1-yl]-[1-(3-methoxybenzenesulfonyl)-3,4-trans-4-phenylpyrrolidin-3-yl]methanone trifluoroacetate] here?
Its EC50 is 1.49 µM.

With `COc1ccc(OC)c(N2CCN(C(=O)[C@@H]3CN(S(=O)(=O)c4cccc5nonc45)C[C@H]3c3ccccc3)CC2)c1` [Example 83, [1-(Benzo[1,2,5]oxadiazole-4-sulfonyl)-3,4-trans-4-phenylpyrrolidin-3-yl]-[4-1-(2,5-dimethoxyphenyl)piperazin-1-yl]methanone trifluoroacetate] as the compound, how does the EC50 read?
The EC50 was 3 µM.

How did the EC50 turn out when `COc1ccc(OC)c(N2CCN(C(=O)[C@@H]3CN(S(=O)(=O)c4cccs4)C[C@H]3c3ccccc3)CC2)c1` [Example 84, [4-(2,5-Dimethoxyphenyl)piperazin-1-yl]-[3,4-trans-4-phenyl-1-(thiophene-2-sulfonyl)pyrrolidin-3-yl]methanone trifluoroacetate] was run?
The EC50 was 2.67 µM.

For `Cc1ccccc1S(=O)(=O)N1C[C@@H](C(=O)N2CCN(c3cc(Cl)ccc3Cl)CC2)[C@H](c2ccccc2)C1` [Example 85, [[4-(2,5-Dichlorophenyl)piperazin-1-yl]-[3,4-trans-4-phenyl-1-(toluene-2-sulfonyl)pyrrolidin-3-yl]methanone trifluoroacetate], which EC50 is on record?
Its EC50 is 0.26 µM.

Which EC50 does the source give for `Cc1ccc(C)c(N2CCN(C(=O)[C@@H]3CN(S(=O)(=O)c4c(C)noc4C)C[C@H]3c3ccc4c(c3)OCO4)CC2)c1` [Example 87, [3,4-trans-4-Benzo[1,3]dioxol-5-yl-1-(3,5-dimethylisoxazole-4-sulfonyl)-pyrrolidin-3-yl]-[4-(2,5-dimethylphenyl)piperazin-1-yl]methanone trifluoroacetate] here?
The EC50 was 1.23 µM.

`COc1cccc(S(=O)(=O)N2C[C@@H](C(=O)N3CCN(c4cc(C)ccc4C)CC3)[C@H](c3ccc4c(c3)OCO4)C2)c1` [Example 88, [3,4-trans-4-Benzo[1,3]dioxol-5-yl-1-(3-methoxybenzenesulfonyl)pyrrolidin-3-yl]-[4-(2,5-dimethylphenyl)piperazin-1-yl]methanone trifluoroacetate] was tested. Which EC50 did it give?
Its EC50 is 2.72 µM.

With `Cc1ccc(C)c(N2CCN(C(=O)[C@@H]3CN(S(=O)(=O)c4c(C)noc4C)C[C@H]3C)CC2)c1` [Example 90, [[1-(3,5-Dimethylisoxazole-4-sulfonyl)-3,4-trans-4-methylpyrrolidin-3-yl]-[4-(2,5-dimethylphenyl)piperazin-1-yl]methanone trifluoroacetate] as the compound, how does the EC50 read?
Its EC50 is 16.8 µM.

Which EC50 does the source give for `COc1cccc(S(=O)(=O)N2C[C@@H](C)[C@H](C(=O)N3CCN(c4cc(C)ccc4C)CC3)C2)c1` [Example 91, [3,4-trans-4-(2,5-Dimethylphenyl)piperazin-1-yl]-[1-(3-methoxybenzene-sulfonyl)-4-methylpyrrolidin-3-yl]methanone trifluoroacetate] here?
Its EC50 is 2.34 µM.
